Experimental data from a melting point compilation (Tetko et al.; mined from patent text by program, amines drawn as free bases though some values may be those of a salt).

melting point | SMILES
76.5 to 77.5 °C | CC(=O)OCC1=C(c2ccccc2)C(=O)N(C(C)(C)C(=O)Nc2cccc(C(F)(F)F)c2)CO1
197 to 198 °C | COc1ccc(C(O)CN2CC=C(C3=NNC(=O)CS3)CC2)cc1 (stereo not drawn)
69 to 70 °C | O=C(c1ccccc1)c1cccc(OCCn2ccnc(N3CCNCC3)c2=O)c1
140 to 142 °C | CN(C)C(=O)n1nc(-c2ccncc2)nc1-c1ccncc1
158 °C | Oc1ccc(SCc2cc(O)c(O)c(O)c2)cc1
127 to 128 °C | O=C1OCCC1=Cc1ccccc1OCC(O)CN1CCC(c2ccc3ccccc3c2)CC1 (stereo not drawn)
218 to 220 °C | CS(=O)(=O)NC1Cc2ccc(C3=NNC(=O)CC3)cc2C1 (stereo not drawn)
176 to 177 °C | CNC(=O)NS(=O)(=O)c1ccccc1CCC(F)(F)F
173 to 175 °C | O=C1N(Cc2ccc(C(F)F)o2)c2ccccc2C12COc1cc3c(cc12)OCCO3 (stereo not drawn)
93 °C | COCC(=O)C1CCC2C3CCC4CC(OC(C)=O)CCC4(C)C3C(=O)CC12C (stereo not drawn)
225 to 236 °C | O=C1Nc2ccccc2Cc2sccc21
273 to 274 °C | COc1ccc2nc(C)[nH]c(=O)c2c1Br
132 to 134 °C | COC(=O)C1Cc2c([nH]c3ccccc23)CN1C(=S)SC (stereo not drawn)
150 °C | COc1cccc(OC)c1-c1cc(C(=O)NC2(C(=O)O)C3CC4CC(C3)CC2C4)nn1-c1ccc([N+](=O)[O-])cc1C (stereo not drawn)
170 to 172 °C | CCOc1cccc(C(=O)Nc2ccc(C(=O)N3CCCc4ccccc43)cc2)c1
117 to 118 °C | CCOC(=O)C(C)N1c2ccccc2Sc2ccc(C#N)cc21 (racemic)
58 to 59 °C | N#CCCc1cncnc1N[C@H]1CC[C@@H](c2ccccc2)CC1
63 to 65 °C | Cc1cc(C(C)C)cc(C)c1CCl
142 °C | CCN(C(=O)C(=O)O)c1ccc2c(C)cc(=O)oc2c1
195 °C | O=C(Nc1ccc(N2CCOCC2=O)cc1)[C@H]1CCCN1C(=O)c1ccc(Cl)s1
110 °C | O=C(O)Cc1ccc(CCNC(=O)C2Cc3ccccc3N2S(=O)(=O)c2ccc(-c3cccc(C(F)(F)F)c3)cc2)cc1 (stereo not drawn)
176 °C | O=C(c1ccc(Cl)cc1)c1cccc(NC(=O)c2ccn3c2CSC3c2cccnc2)c1 (stereo not drawn)
84 to 91 °C | CCCCCCCCCCCC(=O)OC1CC(c2ccccc2)N(O)C(c2ccccc2)C1C (stereo not drawn)
72 to 72.5 °C | CC(c1ccc(-c2ccccc2)c(F)c1)c1nc(CCCl)no1 (stereo not drawn)

melting point | SMILES
206 to 207 °C | CNC(=O)C1=CC(CF)(CF)Oc2ccc(C#N)cc21
108 to 115 °C | COc1cccc(-c2cccc3c2S(=O)(=O)NC(C2CCCCC2)N3)c1 (stereo not drawn)
199 to 201 °C | N/C(=C1/Sc2ccc(Cl)cc2C1=O)c1ccccc1Cl
147 to 151 °C | Cc1cc(F)c(N)cc1-n1cc(C(=O)O)c(=O)c2cc(F)c(N3CC(O)C3)c(C)c21
105 to 107 °C | CCC(Oc1cc(C)c(Cl)c(C)c1)C(=O)NCc1cccs1 (stereo not drawn)
> 140 °C | CC1NC(=O)NN=C1c1ccc(NC(=O)Nc2ccccc2)cc1 (stereo not drawn)
153 to 155 °C | O=c1c2cccc(O)c2nc(-c2ccc(OCCN3CCCCC3)cc2)n1-c1ccc(O)cc1
173 to 174 °C | Cc1oc(=O)oc1CS[C@H](C)[C@](O)(Cn1cncn1)c1ccc(F)cc1F (racemic)
263 to 264 °C | CC(C)(C)OC(=O)N1CCC(NC(=O)c2ccc(-n3cccn3)cc2)C1 (stereo not drawn)
68 to 69 °C | ClC12CCCC(C1)C1CCC2C1 (stereo not drawn)
136 to 137 °C | COc1ccc(S(=O)(=O)Nc2ccccc2NC(=O)c2cccs2)cc1
176 to 179 °C | CCOC(=O)C1=C(c2ccc(-c3ocnc3C)cc2)NC(C)=C(C(=O)Nc2ccccn2)C1c1ccccc1Cl (stereo not drawn)
189 to 192 °C | CC(C)c1ccc2c(c1)c(SC(C)(C)C)c(CC(C)(C)C(=O)O)n2Cc1ccc(Cl)cc1
143 °C | CN(C)n1cc(-c2ccccc2)c(=O)c(-c2ccccc2)c1
64 to 67 °C | O=C(O)CCCCCc1nn(-c2ccc(F)cc2)c2c1CCC2
162 to 168 °C | CC(C)(C)OC(=O)CON=C(C(=O)O)c1cccc(NC=O)n1
96 to 98 °C | CCCCc1oc2ccccc2c1C(OC)c1cc(I)c(OCCN(CC)CC)c(I)c1 (stereo not drawn)
142 °C | CSc1nn(Cc2cccc(C(F)(F)F)c2)c(N)c1C#N
230 to 233 °C | O=C1NCCN1c1nc(-c2ccc(Br)cc2)cs1
106 to 108 °C | COc1ccc2[nH]c(SCc3nccc(SCc4ccco4)c3C)nc2c1
176 to 177 °C | Cc1cc(Nc2ccnc(Nc3ccc(S(=O)(=O)N(C)C4CCN(Cc5nccs5)CC4)cc3)n2)ccc1F
201 to 203 °C | CC1=NCC(=S)Nc2ccc(Cl)cc21
208 to 209 °C | COc1cc2c(c3c1OC(C)(C)C3)C(c1cccc(-c3ccc(NC(C)=O)nc3)c1)=NC(C)(C)C2
72 °C | Cc1cc(Cl)nc(S(C)(=O)=O)n1

melting point | SMILES
130 to 132 °C | CC(C)(CO)C(=O)N(O)Cc1ccccc1Cl
199 °C | CCN1c2ccccc2CC1CNC(=N)N (stereo not drawn)
72 to 73 °C | O=C(CCCCCCCCCCCNC(=O)OCc1ccccc1)OC(=O)CCCCCCCCCCCNC(=O)OCc1ccccc1
62 to 64 °C | Cn1nc(N)nc1NCCCOc1cccc(CNCC(F)(F)F)c1
205 to 206 °C | CCc1[nH]n(C2CCCC2)c2nc(-c3ccc(OC)c(OCCN4CCOCC4)c3)nc(=O)c1-2
86 to 90 °C | CNC(=S)N(C)c1cncc(C(F)(F)F)c1
85.1 °C | COc1ccc(OS(=O)(=O)c2ccc(C)cc2)c(C(C)C)c1
190 to 191 °C | O=C(Oc1ccccc1)c1cc(O)c(O)c(O)c1
229 to 231 °C | COC(=O)c1cnc(N)cn1
121 to 124 °C | CCOC(=O)C1=C(C(=O)OCC)C(c2cccc([N+](=O)[O-])c2)C(C(=O)OCC)=C(C(=O)OCC)N1
99 to 101 °C | COC(=O)N=C(NC(=O)OC)SC
79 °C | COc1ccc(C2=CCC(C#N)CC2)c2c1OCCO2 (stereo not drawn)
98 to 100 °C | O=Cc1cccn2cc(C(F)(F)F)nc12
58 to 60 °C | COC(=O)Cc1ccc(Oc2ccc(C#N)cc2)cc1
122 to 125 °C | Cc1cn(-c2ccc(N)cc2)cn1
95 to 96 °C | CN1C(=O)CN(c2cccc(O)c2)NC1=O
158 to 159 °C | COC(=O)c1cc2ccccc2n1-c1ccccn1
224 to 227 °C | Nc1cc(Oc2ccc(CCO)cc2)c(N)c2c1C(=O)c1ccccc1C2=O
146 to 148 °C | CCOC(=O)C1=C(C)NC(CN(C)C)=C(C(=O)OCC)C1c1ccccc1/C=C/C(=O)OC(C)(C)C (stereo not drawn)
188 to 189 °C | NC(=O)N1C(=O)Cc2ccc(-c3ccccc3)cc21
149 °C | CN1C(=O)Cc2cc(Br)cnc21
172 to 173 °C | COC(=O)CCc1cc(NC(=O)c2ccc(C(=O)Nc3cc(CCC(=O)OC)cc(C(C)(C)C)c3O)s2)c(O)c(C(C)(C)C)c1
188 to 190 °C | O=C(N1CCOCC1)N1CCN(Cc2ccc3c(c2)-c2[nH]nc(-c4ccsc4)c2C3)CC1
145 °C | CC(=O)NCC1Cc2cccc3cccc1c23 (stereo not drawn)

SMILES | melting point
CC(NCC(O)c1cc(Cl)c(N)c(Cl)c1)C1CCCCC1 (stereo not drawn) | 106 to 108 °C
